PMC10611374, “Characterization of the Hemolytic Activity of Mastoparan Family Peptides from Wasp Venoms” (Toxins, 2023)
Read-outs that look alike come from different tables or passages of the source. Ends that are not written are not given here.

Key:
[1] = system: rat red blood cells (RRBCs); test: Hemolytic assay on rat red blood cells; format: cell-based, SD rats; conditions: rat red blood cells 5% (v/v) in PBS, 37 °C 1 h, OD 540 nm; for RRBC Hemolysis (hemolysis rate at 320 μg/mL): peptide 320 μg/mL (highest dose), PBS = 0%, mean of three independent experiments; for EC50: four-parameter logistic fit of mean of three independent experiments, '-' = hemolytic activity too low to calculate the EC50
Description: (§1) Fresh human red blood cells were obtained from healthy donors and collected in a sterile blood collecting vessel covered with sodium citrate (1:9) as the anticoagulating agent. Rat red blood cells were collected from the abdominal aorta in sterile blood-collecting vessels coated with sodium citrate (1:4) after the SD rats were anaesthetized with isoflurane. Then, the cells were washed three times with phosphate-buffered saline via centrifugation (1000× g, 4 °C, 5 min) and prepared in a sterile 96-well polypropylene plate to achieve a final concentration of 5% (v/v). Twofold dilutions of the peptides were prepared in PBS to 100 μL and mixed with an equal volume of HRBCs/RRBCs suspension to final peptide concentrations ranging from 10 to 320 μg/mL. After coincubation at 37 °C for 1 h, the plate was centrifuged (2000× g, 4 °C, 20 min), and 100 μL of supernatant was taken for optical density measurements at 540 nm using a microtiter plate reader (SpectraMax 190). The HRBCs/RRBCs were assayed with PBS (blank) or 1% Triton X-100 (positive control) to represent 0% and 100% hemolysis, respectively. The percent hemolysis was calculated according to the following equation: Hemolysis Rate (%) = 100% × (Amastoparans − Ablank)/(ATriton X-100 − Ablank). Three independent experiments were performed, and the mean hemolysis rate at each dose was used to calculate the EC50 in Sigmaplot software.
(§2) Statistical analysis was performed with GraphPad Prism software (version 5.0, San Diego, CA, USA). A two-tailed Student’s t-test was used to calculate the statistical probability in this study. Differences in the data were considered to be statistically significant when the p value was equal to or less than 0.05. The curve of hemolysis induced by wasp mastoparans was generated in SigmaPlot 12.5 software, and the EC50 was calculated according to the equation (Four Parameter Logistic Curve): y = min + (max − min)/(1 + (x/EC50)^−Hillslope). The heat map of hemolytic activity of mastoparan peptide was analysed in R software which is based on the value of log2(EC50).

[2] = system: human red blood cells (HRBCs); test: Hemolytic assay on human red blood cells; format: cell-based; conditions: for HRBC Hemolysis (hemolysis rate at 320 μg/mL) / EC50: human red blood cells 5% (v/v) in PBS, 37 °C 1 h, OD 540 nm; for HRBC Hemolysis (hemolysis rate at 320 μg/mL): peptide 320 μg/mL (highest dose), PBS = 0%, mean of three independent experiments; for EC50: four-parameter logistic fit of mean of three independent experiments, '-' = hemolytic activity too low to calculate the EC50
Description: as §1, §2

[3] = peptide 10-320 μg/mL twofold dilutions, 1% Triton X-100 = 100%, read-out: RRBC EC50 (hemolytic activity)
[4] = peptide 10-320 μg/mL twofold dilutions, 1% Triton X-100 = 100%, read-out: HRBC EC50 (hemolytic activity)
[5] = Table 2 series, read-out: RRBC EC50 (hemolytic activity), Protopolybia-MPIII and mutants
[6] = Table 2 series, read-out: HRBC EC50 (hemolytic activity), Protopolybia-MPIII and mutants

Row | Molecule | RRBC Hemolysis (hemolysis rate at 320 μg/mL) ([1]; 1% Triton X-100 = 100%) [%] | EC50 [1, 3] [µM] | HRBC Hemolysis (hemolysis rate at 320 μg/mL) ([2]; 1% Triton X-100 = 100%) [%] | EC50 ([2]; peptide 10-320 μg/mL twofold dilutions, 1% Triton X-100 = 100%, listed as Polybia-MPII, read-out: HRBC EC50 (hemolytic activity)) [µM] | EC50 [2, 4] [µM] | EC50 [1, 5] [µM] | EC50 [2, 6] [µM] | hemolytic activity on HRBCs, result in words ([2]; mutants relative to Protopolybia-MPIII) | EC50 ([2]; peptide 10-320 μg/mL twofold dilutions, 1% Triton X-100 = 100%, listed as Polybia-MPI, read-out: HRBC EC50 (hemolytic activity)) [µM]
1 | INWLKLGKMVIDAL-NH2 [Polybia-MP II] | 100 | 29.1 ± 1.5 | 91 | ≤ 400 | 23.3 ± 1.4 | – | – | – | –
2 | INWLKLGKAVSDIL-NH2 [Protopolybia-MPIII-9] | – | – | – | – | – | 161.7 ± 1.3 | 167 ± 2.7 | – | –
3 | INWKKIFQKVKNLV-NH2 [PDD-A] | 27 | – | 30 | – | 354 ± 44.8 | – | – | – | –
4 | INWLKLGKQILGAL-NH2 [Pm-R3] | 100 | 73.5 ± 5.1 | 100 | – | 32.3 ± 1.7 | – | – | – | –
5 | INWLKLGKAVSAIL-NH2 [Protopolybia-MPIII-11] | – | – | – | – | – | 134 ± 2.2 | 141 ± 2.4 | – | –
6 | INMKAVAAVAKKPL-NH2 [MP-VB2] | 0 | – | 0 | – | – | – | – | – | –
7 | CC[C@H](C)[C@H](NC(=O)[C@H](CC(=O)O)NC(=O)[C@@H](N)Cc1ccccc1)C(=O)N[C@@H](CCSC)C(=O)NCC(=O)N[C@@H](CC(C)C)C(=O)N[C@H](C(=O)N[C@@H](CCCCN)C(=O)N[C@@H](CCCCN)C(=O)N[C@H](C(=O)N[C@@H](C)C(=O)NCC(=O)N[C@@H](C)C(=O)N[C@@H](CC(C)C)C(N)=O)C(C)C)[C@@H](C)CC [EMP-ER] | 46 | 231 ± 3.7 | 25 | – | – | – | – | – | –
8 | INLKALLAVAKKIL-NH2 [Mastoparan-C] | 100 | 64.4 ± 10.7 | 100 | – | – | – | – | – | –
9 | INLFGFAALVKKFL-NH2 [Mastoparan-T4] | 100 | 17.6 ± 2.4 | 100 | – | 28.5 ± 2.3 | – | – | – | –
10 | IDWLKLRVISVIDL-NH2 [Polybia-MP IV] | 0 | > 400 | 0 | – | > 400 | – | – | – | –
11 | INWKKIASIGKEVLKAL-NH2 [PMM2] | 100 | 80.9 ± 6.4 | 100 | – | 42.6 ± 2.5 | – | – | – | –
12 | FDLLGLVKKVASAL-NH2 [EpVP2a] | 41 | 239 ± 7.6 | 79 | – | 152 ± 6.3 | – | – | – | –
13 | INWLKLGKAVSAAL-NH2 [Protopolybia-MPIII-8] | – | – | – | – | – | 444 ± 2.1 | 308 ± 6.2 | – | –
14 | INWLKLGKAVIDAL-NH2 [Protopolybia-MPIII] | 93 | 34.6 ± 2.8 | 96 | – | 61.9 ± 8.3 | 42.8 ± 2.1 | – | – | –
15 | INWLKLGKAVIAAL-NH2 [Protopolybia-MPIII-3] | – | – | – | – | – | 21.5 ± 1.2 | 16.8 ± 1 | – | –
16 | VDWKKIGQHILSVL-NH2 [Mastoparan-J] | 100 | 60.1 ± 1.3 | 100 | – | 69.5 ± 3.2 | – | – | – | –
17 | INLRGFAALVKKFL-NH2 [Mastoparan-T3] | 100 | 51.6 ± 2.1 | 100 | – | 112 ± 8 | – | – | – | –
18 | INWKKIKSIIKAAMN-NH2 [Mastoparan-V1] | 16 | – | 9 | – | – | – | – | – | –
19 | INWKAIIEAAKQAL-NH2 [Protopolybia-MPII] | 24 | > 400 | 13 | – | > 400 | – | – | – | –
20 | FDVMGIIKKIASAL-NH2 [EMP-EF] | 48 | 216.8 ± 1.6 | 100 | – | 125 ± 20.6 | – | – | – | –

Row | Molecule | RRBC Hemolysis (hemolysis rate at 320 μg/mL) ([1]; 1% Triton X-100 = 100%) [%] | EC50 [1, 3] [µM] | HRBC Hemolysis (hemolysis rate at 320 μg/mL) ([2]; 1% Triton X-100 = 100%) [%] | EC50 ([2]; peptide 10-320 μg/mL twofold dilutions, 1% Triton X-100 = 100%, listed as Polybia-MPII, read-out: HRBC EC50 (hemolytic activity)) [µM] | EC50 [2, 4] [µM] | EC50 [1, 5] [µM] | EC50 [2, 6] [µM] | hemolytic activity on HRBCs, result in words ([2]; mutants relative to Protopolybia-MPIII) | EC50 ([2]; peptide 10-320 μg/mL twofold dilutions, 1% Triton X-100 = 100%, listed as Polybia-MPI, read-out: HRBC EC50 (hemolytic activity)) [µM]
21 | INWLKLGKAVSDAL-NH2 [Protopolybia-MPIII-2] | – | – | – | – | – | 639.5 ± 1.6 | 673 ± 189 | – | –
22 | LNFKALAALAKKIL-NH2 [Pm-R2] | 34 | 250 ± 9.9 | 66 | – | 166 ± 8 | – | – | – | –
23 | IKWKAILDAVKKVL-NH2 [Mastoparan-A] | 56 | 183 ± 3.4 | 7 | – | – | – | – | – | –
24 | INWLKLGKKMMSAL-NH2 [MP] | 10 | – | 87 | – | 124 ± 15.3 | – | – | – | –
25 | INWHDIAIKNIDAL-NH2 [Polybia-MP V] | 0 | > 400 | 0 | – | > 400 | – | – | – | –
26 | GRILSFIKGLAEHL-NH2 [EMP-OD] | 49 | 190 ± 32 | 2 | – | – | – | – | – | –
27 | INWLKLGKKVSAIL-NH2 [Protopolybia-MP I] | 5 | > 400 | 5 | – | > 400 | > 400 | > 400 | almost no hemolytic activity | –
28 | INWLKLGKKILGAL-NH2 [PDD-B] | 100 | 55.6 ± 4.1 | 100 | – | 48.5 ± 3.4 | – | – | – | –
29 | INLKVFAALVKKLL-NH2 [Mastoparan-T2] | 100 | 21.1 ± 2.4 | 100 | – | 11.8 ± 3.1 | – | – | – | –
30 | INWLKLGKKVIDAL-NH2 [Protopolybia-MPIII-1] | – | – | – | – | – | 158 ± 2.3 | 176.4 ± 1 | – | –
31 | INWLKLGKAIIDAL-NH2 [Agelaia-MPI] | 98 | 7 ± 0.7 | 100 | – | 3.7 ± 0.14 | – | – | – | –
32 | FDLLGLVKSVVSAL-NH2 [EpVP2b] | 100 | 50.6 ± 2.6 | 100 | – | 34.1 ± 3.5 | – | – | – | –
33 | INLKVFAALVKKFL-NH2 [Mastoparan-T1] | 87 | 22.7 ± 7.1 | 100 | – | 30.8 ± 1.6 | – | – | – | –
34 | INWKKIKSLIKAAMS-NH2 [Mastoparan-V2] | 52 | 182 ± 3.6 | 15 | – | – | – | – | – | –
35 | INWAKLGKLALQAL-NH2 [Ropalidia-MP] | 94 | 122 ± 4.3 | 100 | – | 42.5 ± 1.7 | – | – | – | –
36 | INLKAIAALVKKVL-NH2 [HR1] | 39 | 253 ± 13 | 56 | – | 198 ± 8.9 | – | – | – | –
37 | IDWKKLLDAAKQIL-NH2 [Polybia-MP I] | 100 | 51.4 ± 2.2 | 56 | – | 177 ± 7 | – | – | – | ≤ 400
38 | INWKAILQRIKKML-NH2 [Agelaia-MPII] | 97 | 62.1 ± 3.8 | 100 | – | 44.8 ± 10.4 | – | – | – | –
39 | LNLKGLFKKVASLLT [Eumenitin-F] | 44 | 207.1 ± 2 | 67 | – | 157 ± 2.6 | – | – | – | –
40 | INWKALLDAAKKVL-NH2 [Protonectarina-MP] | 35 | 326 ± 26.4 | 100 | – | – | – | – | – | –
